Laboratory results reported in article PMC12281424, “A Rac-specific competitive inhibitor of guanine nucleotide binding reduces metastasis in triple-negative breast cancer” (Cell Reports Medicine, 2025).

Columns and labels:
SGK2(h) = SGK2(h) (Homo sapiens, UniProt Q9HBY8); experiment: Kinase Profiler; assay type: biochemical
Procedure: (§1) The kinase profiler was performed by the company Eurofins (Discovery, Panlab and Cerep).

Transporter, Adenosine = experiment: Safety screen; assay type: binding, guinea pig
Procedure: (§2) Blood cell counts, kinase profiler, safety screen, bacterial cytotoxicity, Ames, micronucleus assays were performed by the company Eurofins (France).

NDR2(h) = NDR2(h) (Homo sapiens, UniProt Q9Y2H1); experiment: Kinase Profiler; assay type: biochemical
Procedure: as §1

Snk(h) = Snk(h) (Homo sapiens, UniProt Q9NYY3); experiment: Kinase Profiler; assay type: biochemical
Procedure: as §1

[1] = target: Peptidase, CTSG (Cathepsin G) (Homo sapiens, UniProt P08311); experiment: Safety screen; assay type: biochemical
Procedure: as §2

Monoamine Oxidase MAO-B = Monoamine Oxidase MAO-B (Homo sapiens, UniProt P27338); experiment: Safety screen; assay type: biochemical
Procedure: as §2

FGFR2(h) = FGFR2(h) (Homo sapiens, UniProt P21802); experiment: Kinase Profiler; assay type: biochemical
Procedure: as §1

MAPK2(m) = MAPK2(m) (Mus musculus, UniProt P63085); experiment: Kinase Profiler; assay type: biochemical
Procedure: as §1

CK1ε(h) = CK1ε(h) (Homo sapiens, UniProt P49674); experiment: Kinase Profiler; assay type: biochemical
Procedure: (§3) Blood cell counts, kinase profiler, safety screen, bacterial cytotoxicity, Ames, micronucleus assays were performed by the company Eurofins (France). The kinase profiler was performed by the company Eurofins (Discovery, Panlab and Cerep).

CDKL2(h) = CDKL2(h) (Homo sapiens, UniProt Q92772); experiment: Kinase Profiler; assay type: biochemical
Procedure: as §1

RAC1 = target: T1, RAC1 (Mus musculus, UniProt P63001); experiment: RAC-GTP pull-down assay, EGF-stimulated NIH/3T3 fibroblasts; assay type: cell-based; settings: 10^-5 M, 1 h, EGF 10 ng/mL 5 min
T1 construct: endogenous in cells; host or cells: NIH/3T3 fibroblasts (ATCC CRL-1658), EGF-stimulated
Procedure: Figure 2 Identification of a new RAC1 inhibitor (A) Effect of A41 and NSC23766 on ruffle formation (white arrows) induced by EGF (10 ng/mL) in NIH 3T3 cells in serum-free culture medium (CTL). Inhibitors were added at indicated concentration 1 h prior to EGF stimulation. To assess cytoskeleton organization, cells were incubated with Alexa Fluor 488 phalloidin to visualize F-actin. Results shown are representative of 3 independent experiments. Corresponding concentration-response curves have been established by counting the percentages of cells with ruffles (scale bars: 10 μm). (B) Immunoblot analysis and associated quantification of RAC-GTP level and total RAC expression in NIH 3T3 cells stimulated by EGF (10 ng/mL, 5 min) and pre-incubated or not (−) with NSC23766, A41, or A415 at 10^−5 M for 1 h (∗∗∗p < 0.001 vs. controls without EGF stimulation, ^###p < 0.001 vs. controls with EGF stimulation) (N > 3). (C) Representative surface plasmon resonance (SPR) sensograms of binding of immobilized RAC1 with increasing concentrations of A41 with or without EDTA (20 mM) (N > 3). (D) Representative in vitro nucleotide exchange catalyzed by the DH-PH of TIAM (10 nM) measured by the binding of fluorescent mant-GTP (1 μM) to RAC1 (0.5 μM, preloaded with GDP) in the presence of indicated concentrations of A41 (out of N = 6). Dotted lines correspond to the experimental curves, and continuous lines represent the fit of experimental points. (E) Kobs and Kmax were determined in each condition (N = 6). (F) Predicted binding modes of A4 to the NSC23766-binding site (left) or the GDP-binding pocket of RAC1 (right). In the NSC23766-binding site of RAC1, the compound A4 (carbon atoms in blue) makes 2 hydrogen bonds (green dotted line) with Ser71 (S71) and 10 hydrophobic interactions (pink dotted line) with Ala3 (A3), Lys5 (K5), Val36 (V36), Trp56 (W56), Tyr64 (Y64), and Leu67 (L67) leading to a docking score of −6.03 kcal/mol. The GDP molecule is shown with fine line. The P loop is shown in yellow, the switch 1 in orange, and the switch 2 in green. […]
Pull-down assay using GST-PBD fusion proteins were performed on NIH-3T3 lysates to assess RAC1 activity as previously described.[63] The precipitated active RAC was subjected to SDS-PAGE and detected by immunoblot with anti-RAC1 antibody (BD biosciences) (dilution 1/1000). […]
screening molecules (10^-5 M) on NIH/3T3 cell adhesion (xCELLingence Real-time cellanalysis, Agilent), migration (CYTOO Mobility plates) and proliferation (xCELLingence Real-time cell analysis, Agilent) .The level of RAC activation is determinedby the detection of RAC-GTP (pull-down assay) in NIH/3T3 cell treated with EGF (10 ng/mL) and the differentmolecules and normalize to the level of RAC activity measuredin the presenceof the reference RAC inhibitor EHT1864.

Dopamine D2L = Dopamine D2L (Homo sapiens, UniProt P14416); experiment: Safety screen; assay type: binding
Procedure: as §2

IR(h), activated = IR(h), activated (Homo sapiens, UniProt P06213); experiment: Kinase Profiler; assay type: biochemical
Procedure: as §3

SBK1(h) = SBK1(h) (Homo sapiens, UniProt Q52WX2); experiment: Kinase Profiler; assay type: biochemical
Procedure: as §1

MAK(h) = MAK(h) (Homo sapiens, UniProt P20794); experiment: Kinase Profiler; assay type: biochemical
Procedure: as §1

MST1(h) = MST1(h) (Homo sapiens, UniProt Q13043); experiment: Kinase Profiler; assay type: biochemical
Procedure: as §3

TSSK3(h) = TSSK3(h) (Homo sapiens, UniProt Q96PN8); experiment: Kinase Profiler; assay type: biochemical
Procedure: as §1

CLK3(h) = CLK3(h) (Homo sapiens, UniProt P49761); experiment: Kinase Profiler; assay type: biochemical
Procedure: as §1

[2] = target: Nicotinic Acetylcholine α1, Bungarotoxin (Homo sapiens, UniProt P02708+P07510+Q07001); experiment: Safety screen; assay type: binding
[3] = system: membrane receptors, ion channel, and kinases; experiment: In vitro binding assays on a panel of potential targets
Procedure: as §3

Adrenergic α2A = Adrenergic α2A (Homo sapiens, UniProt P08913); experiment: Safety screen; assay type: binding
Sequence of Adrenergic α2A (P08913 whole entry): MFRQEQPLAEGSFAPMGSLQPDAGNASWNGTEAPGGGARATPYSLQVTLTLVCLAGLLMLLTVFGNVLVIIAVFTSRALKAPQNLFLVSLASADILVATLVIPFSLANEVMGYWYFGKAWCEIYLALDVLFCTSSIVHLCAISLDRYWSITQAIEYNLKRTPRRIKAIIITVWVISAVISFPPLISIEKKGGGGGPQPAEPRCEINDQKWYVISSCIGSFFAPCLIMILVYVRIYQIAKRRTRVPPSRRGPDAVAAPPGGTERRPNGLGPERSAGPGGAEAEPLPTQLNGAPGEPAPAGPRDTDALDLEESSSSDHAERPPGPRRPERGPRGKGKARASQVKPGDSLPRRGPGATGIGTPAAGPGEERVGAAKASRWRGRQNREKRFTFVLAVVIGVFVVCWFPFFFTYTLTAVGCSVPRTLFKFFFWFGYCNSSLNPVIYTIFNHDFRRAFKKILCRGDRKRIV
Procedure: as §2

Sequence of Nicotinic Acetylcholine α1, Bungarotoxin (P02708 21-457): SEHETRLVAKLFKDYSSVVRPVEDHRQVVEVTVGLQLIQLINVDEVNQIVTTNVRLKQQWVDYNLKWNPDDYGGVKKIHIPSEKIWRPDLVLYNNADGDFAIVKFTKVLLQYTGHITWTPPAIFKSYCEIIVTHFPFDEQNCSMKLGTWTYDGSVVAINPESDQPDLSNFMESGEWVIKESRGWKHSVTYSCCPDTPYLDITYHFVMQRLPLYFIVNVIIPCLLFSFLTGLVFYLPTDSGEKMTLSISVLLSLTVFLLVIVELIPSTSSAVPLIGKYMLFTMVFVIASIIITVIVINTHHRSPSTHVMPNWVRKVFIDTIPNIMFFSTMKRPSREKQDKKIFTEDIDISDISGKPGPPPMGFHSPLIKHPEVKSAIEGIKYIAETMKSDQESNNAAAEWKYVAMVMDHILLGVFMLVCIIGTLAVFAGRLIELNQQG
Sequence of Nicotinic Acetylcholine α1, Bungarotoxin (Q07001 22-517): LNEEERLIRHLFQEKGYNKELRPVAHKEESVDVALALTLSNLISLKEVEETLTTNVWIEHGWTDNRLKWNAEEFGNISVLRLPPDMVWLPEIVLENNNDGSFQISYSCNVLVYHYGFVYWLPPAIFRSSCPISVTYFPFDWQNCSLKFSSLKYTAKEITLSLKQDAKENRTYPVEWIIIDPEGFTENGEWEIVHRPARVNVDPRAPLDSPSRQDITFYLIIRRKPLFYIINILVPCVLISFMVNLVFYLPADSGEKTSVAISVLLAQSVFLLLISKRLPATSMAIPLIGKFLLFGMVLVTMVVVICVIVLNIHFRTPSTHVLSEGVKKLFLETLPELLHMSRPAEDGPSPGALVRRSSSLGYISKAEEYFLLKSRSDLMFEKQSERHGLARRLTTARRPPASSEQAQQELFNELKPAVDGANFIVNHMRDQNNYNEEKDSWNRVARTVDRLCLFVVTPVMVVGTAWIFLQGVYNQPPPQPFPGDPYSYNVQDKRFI
Sequence of Nicotinic Acetylcholine α1, Bungarotoxin (P07510 23-517): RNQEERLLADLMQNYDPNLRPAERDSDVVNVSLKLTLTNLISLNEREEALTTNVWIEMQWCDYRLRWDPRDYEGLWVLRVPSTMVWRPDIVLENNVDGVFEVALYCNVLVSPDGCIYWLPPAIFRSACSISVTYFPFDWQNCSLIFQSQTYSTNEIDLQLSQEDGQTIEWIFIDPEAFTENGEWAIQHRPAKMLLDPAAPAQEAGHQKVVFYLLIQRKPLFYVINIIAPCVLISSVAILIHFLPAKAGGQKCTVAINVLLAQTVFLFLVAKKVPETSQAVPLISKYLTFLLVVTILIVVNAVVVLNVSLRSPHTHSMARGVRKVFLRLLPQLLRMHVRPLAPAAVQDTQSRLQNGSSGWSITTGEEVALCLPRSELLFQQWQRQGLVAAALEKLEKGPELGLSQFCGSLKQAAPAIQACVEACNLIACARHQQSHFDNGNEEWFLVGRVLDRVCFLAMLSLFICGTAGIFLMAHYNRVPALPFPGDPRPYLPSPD
Sequence of Nicotinic Acetylcholine α1, Bungarotoxin (P11230 24-501, further chain): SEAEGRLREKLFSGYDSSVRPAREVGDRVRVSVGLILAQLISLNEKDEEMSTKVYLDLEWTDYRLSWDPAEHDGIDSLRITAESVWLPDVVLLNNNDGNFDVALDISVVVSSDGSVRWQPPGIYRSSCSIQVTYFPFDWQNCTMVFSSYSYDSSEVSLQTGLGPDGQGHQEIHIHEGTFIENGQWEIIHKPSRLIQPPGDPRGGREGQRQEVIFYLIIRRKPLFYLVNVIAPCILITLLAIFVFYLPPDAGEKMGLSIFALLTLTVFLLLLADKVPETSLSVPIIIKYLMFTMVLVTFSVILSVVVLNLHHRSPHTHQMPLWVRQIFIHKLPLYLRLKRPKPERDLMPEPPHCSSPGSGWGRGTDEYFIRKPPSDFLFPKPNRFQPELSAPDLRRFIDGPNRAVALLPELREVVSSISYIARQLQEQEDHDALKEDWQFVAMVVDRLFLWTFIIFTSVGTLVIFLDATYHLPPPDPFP
Sequence of Dopamine D2L (P14416 whole entry): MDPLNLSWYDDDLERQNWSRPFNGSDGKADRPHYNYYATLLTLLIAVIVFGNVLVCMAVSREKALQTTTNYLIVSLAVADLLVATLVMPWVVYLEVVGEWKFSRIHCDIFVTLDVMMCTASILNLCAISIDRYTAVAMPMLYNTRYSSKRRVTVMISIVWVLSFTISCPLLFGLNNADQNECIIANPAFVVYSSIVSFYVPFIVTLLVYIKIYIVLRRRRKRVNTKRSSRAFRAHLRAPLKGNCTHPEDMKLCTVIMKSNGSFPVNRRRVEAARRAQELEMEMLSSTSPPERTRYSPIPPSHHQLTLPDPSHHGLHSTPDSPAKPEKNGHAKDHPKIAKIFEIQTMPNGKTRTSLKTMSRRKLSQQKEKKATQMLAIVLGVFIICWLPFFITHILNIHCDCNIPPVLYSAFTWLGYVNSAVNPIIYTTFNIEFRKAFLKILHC
Sequence of SGK2(h) (Q9HBY8 whole entry): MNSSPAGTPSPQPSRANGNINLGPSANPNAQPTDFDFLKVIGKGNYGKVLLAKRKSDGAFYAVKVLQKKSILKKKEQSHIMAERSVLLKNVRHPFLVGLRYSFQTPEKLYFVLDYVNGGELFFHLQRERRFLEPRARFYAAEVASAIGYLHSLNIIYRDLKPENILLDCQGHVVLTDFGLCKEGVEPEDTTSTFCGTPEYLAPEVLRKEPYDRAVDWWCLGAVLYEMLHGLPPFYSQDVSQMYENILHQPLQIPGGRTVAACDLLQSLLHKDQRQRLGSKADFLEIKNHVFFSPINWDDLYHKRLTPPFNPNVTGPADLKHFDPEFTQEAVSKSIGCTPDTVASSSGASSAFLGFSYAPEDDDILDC
Sequence of MAK(h) (P20794 whole entry): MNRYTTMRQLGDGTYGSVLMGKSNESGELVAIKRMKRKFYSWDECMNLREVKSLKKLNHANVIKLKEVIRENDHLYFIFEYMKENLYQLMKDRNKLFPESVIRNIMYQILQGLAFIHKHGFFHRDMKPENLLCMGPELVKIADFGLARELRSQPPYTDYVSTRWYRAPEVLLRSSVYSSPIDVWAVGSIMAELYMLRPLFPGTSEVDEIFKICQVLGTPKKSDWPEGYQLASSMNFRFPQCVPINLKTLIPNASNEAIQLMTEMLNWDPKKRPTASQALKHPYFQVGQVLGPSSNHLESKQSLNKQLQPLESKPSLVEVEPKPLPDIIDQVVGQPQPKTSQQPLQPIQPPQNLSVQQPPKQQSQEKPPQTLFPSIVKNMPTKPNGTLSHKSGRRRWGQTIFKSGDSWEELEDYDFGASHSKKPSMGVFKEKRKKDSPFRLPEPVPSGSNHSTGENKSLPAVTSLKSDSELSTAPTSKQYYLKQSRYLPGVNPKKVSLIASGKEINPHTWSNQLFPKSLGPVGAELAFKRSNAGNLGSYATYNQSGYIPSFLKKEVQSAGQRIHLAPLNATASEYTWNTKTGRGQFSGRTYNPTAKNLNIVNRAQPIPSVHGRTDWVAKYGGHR
Sequence of CLK3(h) (P49761 whole entry): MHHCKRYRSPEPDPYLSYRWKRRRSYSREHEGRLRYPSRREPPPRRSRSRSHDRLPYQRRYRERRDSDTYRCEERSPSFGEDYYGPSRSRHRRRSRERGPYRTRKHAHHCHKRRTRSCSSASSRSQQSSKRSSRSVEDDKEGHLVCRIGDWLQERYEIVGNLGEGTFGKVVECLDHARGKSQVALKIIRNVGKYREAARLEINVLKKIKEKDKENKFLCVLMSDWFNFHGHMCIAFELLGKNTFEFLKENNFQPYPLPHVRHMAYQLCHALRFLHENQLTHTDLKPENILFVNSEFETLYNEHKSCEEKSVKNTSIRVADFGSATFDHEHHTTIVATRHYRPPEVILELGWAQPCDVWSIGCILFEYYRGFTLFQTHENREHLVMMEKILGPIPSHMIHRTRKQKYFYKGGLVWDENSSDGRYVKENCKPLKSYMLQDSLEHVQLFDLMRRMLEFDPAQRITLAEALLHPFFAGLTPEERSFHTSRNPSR
Sequence of Snk(h) (Q9NYY3 whole entry): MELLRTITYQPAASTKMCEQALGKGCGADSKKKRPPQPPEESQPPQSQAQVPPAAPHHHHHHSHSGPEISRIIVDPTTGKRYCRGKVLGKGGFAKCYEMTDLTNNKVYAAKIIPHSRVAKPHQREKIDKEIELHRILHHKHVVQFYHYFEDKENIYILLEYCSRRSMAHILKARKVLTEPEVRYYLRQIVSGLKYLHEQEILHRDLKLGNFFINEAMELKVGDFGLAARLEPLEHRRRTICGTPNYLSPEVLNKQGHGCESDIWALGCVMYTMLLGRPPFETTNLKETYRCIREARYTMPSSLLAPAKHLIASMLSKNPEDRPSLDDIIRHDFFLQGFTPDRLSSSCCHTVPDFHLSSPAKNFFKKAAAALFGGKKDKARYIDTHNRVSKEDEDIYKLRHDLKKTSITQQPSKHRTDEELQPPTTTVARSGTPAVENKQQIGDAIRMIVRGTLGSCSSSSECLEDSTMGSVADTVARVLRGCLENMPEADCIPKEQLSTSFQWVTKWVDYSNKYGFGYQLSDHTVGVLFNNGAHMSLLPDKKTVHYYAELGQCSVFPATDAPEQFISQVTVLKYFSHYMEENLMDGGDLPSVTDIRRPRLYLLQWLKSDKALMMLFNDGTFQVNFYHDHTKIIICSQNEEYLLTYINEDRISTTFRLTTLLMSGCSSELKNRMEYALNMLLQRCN

SMILES: COc1ccc(OC)c(NS(=O)(=O)c2ccc(NC(=O)CCSc3ccc(C)cc3)cc2)c1 [Compound A41]
- Activity(%) (SGK2(h)): 117%
- % inh. (Transporter, Adenosine): 37%
- Activity(%) (NDR2(h)): 112%
- Activity(%) (Snk(h)): 112%
- % inh. [1]: -2%
- % inh. (Monoamine Oxidase MAO-B): 17%
- Activity(%) (FGFR2(h)): 89%
- Activity(%) (MAPK2(m)): 108%
- Activity(%) (CK1ε(h)): 108%
- Activity(%) (CDKL2(h)): 103%
- RAC1 activation (active GTP-bound RAC1) (RAC1): blocked RAC1 activation
- % inh. (Dopamine D2L): 9%
- Activity(%) (IR(h), activated): 104%
- Activity(%) (SBK1(h)): 101%
- Activity(%) (MAK(h)): 117%
- Activity(%) (MST1(h)): 96%
- Activity(%) (TSSK3(h)): 104%
- Activity(%) (CLK3(h)): 110%
- % inh. [2]: 0%
- off-target binding [3]: only very limited off-target binding
- % inh. (Adrenergic α2A): 29%
